Results reported in ChEMBL document CHEMBL4732046, “A red-light-activated sulfonamide porphycene for highly efficient photodynamic therapy against hypoxic tumor” (Eur J Med Chem, 2021).

Tests used:
HeLa [1] = experiment: Photocytotoxicity against human HeLa cells assessed as reduction in cell viability irradiated with 640 +/- 15 nm red LED for 4 hrs measured after 24 hrs by MTT assay; type: functional, cell-based; conditions: light or radiation study
KYSE-70 cell line [2] = experiment: Photocytotoxicity against human KYSE-70 cells assessed as reduction in cell viability irradiated with 640 +/- 15 nm red LED for 4 hrs measured after 24 hrs by MTT assay; type: functional, cell-based; conditions: KYSE-70, light or radiation study
A-375 [3] = experiment: Photocytotoxicity against human A-375 cells assessed as reduction in cell viability irradiated with 640 +/- 15 nm red LED for 4 hrs measured after 24 hrs by MTT assay; type: functional, cell-based; conditions: A-375, light or radiation study
B16 [4] = experiment: Photocytotoxicity against mouse B16 cells assessed as reduction in cell viability irradiated with 640 +/- 15 nm red LED for 4 hrs measured after 24 hrs by MTT assay; type: functional, cell-based; conditions: B16, light or radiation study
HeLa [5] = experiment: Photocytotoxicity against human HeLa cells assessed as reduction in cell viability irradiated with 640 +/- 15 nm red LED for 4 hrs measured after 24 hrs under hypoxic condition by MTT assay; type: functional, cell-based; conditions: light or radiation study
KYSE-70 cell line [6] = experiment: Photocytotoxicity against human KYSE-70 cells assessed as reduction in cell viability irradiated with 640 +/- 15 nm red LED for 4 hrs measured after 24 hrs under hypoxic condition by MTT assay; type: functional, cell-based; conditions: KYSE-70, light or radiation study
A-375 [7] = experiment: Photocytotoxicity against human A-375 cells assessed as reduction in cell viability irradiated with 640 +/- 15 nm red LED for 4 hrs measured after 24 hrs under hypoxic condition by MTT assay; type: functional, cell-based; conditions: A-375, light or radiation study
B16 [8] = experiment: Photocytotoxicity against mouse B16 cells assessed as reduction in cell viability irradiated with 640 +/- 15 nm red LED for 4 hrs measured after 24 hrs under hypoxic condition by MTT assay; type: functional, cell-based; conditions: B16, light or radiation study
HeLa [9] = experiment: Cytotoxicity against human HeLa cells assessed as cell viability in dark measured after 24 hrs by MTT assay; type: functional, cell-based
KYSE-70 cell line [10] = experiment: Cytotoxicity against human KYSE-70 cells assessed as cell viability in dark measured after 24 hrs by MTT assay; type: functional, cell-based; conditions: KYSE-70, 24 h
A-375 [11] = experiment: Cytotoxicity against human A-375 cells assessed as cell viability in dark measured after 24 hrs by MTT assay; type: functional, cell-based; conditions: A-375, 24 h
B16 [12] = experiment: Cytotoxicity against mouse B16 cells assessed as cell viability in dark measured after 24 hrs by MTT assay; type: functional, cell-based; conditions: B16, 24 h
HeLa [13] = experiment: Photo-therapeutic index, ratio of LD50 for photocytotoxicity against human HeLa cells assessed as reduction in cell viability irradiated with 640 +/- 15 nm red LED for 4 hrs measured after 24 hrs by MTT assay to LD50 for cytotoxicity against human HeLa cells assessed as cell viability in dark measured after 24 hrs by MTT assay; type: functional

Compound	DC50 (HeLa [1]) [µM]	DC50 (KYSE-70 cell line [2]) [µM]	DC50 (A-375 [3]) [µM]	DC50 (B16 [4]) [µM]	DC50 (HeLa [5]) [µM]	DC50 (KYSE-70 cell line [6]) [µM]	DC50 (A-375 [7]) [µM]	DC50 (B16 [8]) [µM]	DC50 (HeLa [9]) [µM]	DC50 (KYSE-70 cell line [10]) [µM]	DC50 (A-375 [11]) [µM]	DC50 (B16 [12]) [µM]	Ratio (HeLa [13])
CC/N=c1/cc2sc3cc(N(CC)CC)ccc3nc-2c2ccccc12	0.095	0.305	0.507	0.93	1.03	0.809	1.3	1.89	7	4	1	11	–
CC(C)(C)C1=Cc2nc1ccc1[nH]c(cc1C(C)(C)C)c1nc(ccc3[nH]c2cc3S(=O)(=O)NCCOCCO)C(S(=O)(=O)NCCOCCO)=C1	0.069	0.005	0.023	0.168	0.329	0.024	0.057	0.37	24	28	28	57	73
